Measured values as given in patent US7396837B2, “Antitumoral analogs of lamellarins” (Pharma Mar, S.A.U., priority 2002, dated 2008).
Where two headings read alike, the source gives them in different places.

Legend:
Format in all cases: cell-based
[1] = test system: A-549; assay: SRB colorimetric cell growth inhibition assay, A-549; settings: for GI50: GI=growth inhibition, read-out: GI50 A-549; for CC50: cell killing (cytotoxic effect); for IC (TGI): total growth inhibition (cytostatic effect), read-out: TGI A-549
Procedure, shortened: (§1)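 Quantitation uses the sulforhodamine B reaction on cells exposed to sample for the whole assay period; results (mean ± SD, n = 3 wells) yield GI, TGI and LC.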

[2] = test system: HeLa-APL; assay: SRB colorimetric cell growth inhibition assay, HeLa-APL (aplidine resistant); settings: Homo sapiens; for GI50: read-out: GI50 HELA-APL; for CC50: cell killing (cytotoxic effect); for IC (TGI): read-out: TGI HELA-APL
Procedure, shortened: as §1

[3] = test system: K-562; assay: SRB colorimetric cell growth inhibition assay, K-562; settings: for GI50: GI=growth inhibition, read-out: GI50 K-562; for CC50: cell killing (cytotoxic effect); for IC (TGI): total growth inhibition (cytostatic effect), read-out: TGI K-562
Procedure, shortened: as §1

[4] = test system: SK-MEL-28; assay: SRB colorimetric cell growth inhibition assay, SK-MEL-28; settings: for GI50: GI=growth inhibition, read-out: GI50 MEL-28; for IC (TGI): total growth inhibition (cytostatic effect), read-out: TGI MEL-28
Procedure, shortened: as §1

[5] = test system: LoVo; assay: SRB colorimetric cell growth inhibition assay, LoVo; settings: for GI50: GI=growth inhibition, read-out: GI50 LOVO; for CC50: cell killing (cytotoxic effect); for IC (TGI): total growth inhibition (cytostatic effect), read-out: TGI LOVO
Procedure, shortened: as §1

[6] = test system: DU-145; assay: SRB colorimetric cell growth inhibition assay, DU-145; settings: for GI50: GI=growth inhibition, read-out: GI50 DU-145
Procedure, shortened: as §1

[7] = test system: LoVo-Dox; assay: SRB colorimetric cell growth inhibition assay, LoVo-Dox (MDR); settings: for GI50: GI=growth inhibition, read-out: GI50 LOVO-DOX; for CC50: cell killing (cytotoxic effect); for IC (TGI): total growth inhibition (cytostatic effect), read-out: TGI LOVO-DOX
Procedure, shortened: as §1

[8] = test system: PANC-1; assay: SRB colorimetric cell growth inhibition assay, PANC-1; settings: for GI50: GI=growth inhibition, read-out: GI50 PANC-1; for CC50: cell killing (cytotoxic effect); for IC (TGI): total growth inhibition (cytostatic effect), read-out: TGI PANC-1
Procedure, shortened: as §1

[9] = test system: HeLa; assay: SRB colorimetric cell growth inhibition assay, HeLa; settings: Homo sapiens, HeLa; for GI50: GI=growth inhibition, read-out: GI50 HELA; for CC50: cell killing (cytotoxic effect); for IC (TGI): read-out: TGI HELA
Procedure, shortened: as §1

[10] = test system: SK-BR-3; assay: SRB colorimetric cell growth inhibition assay, SK-BR-3; settings: for GI50: GI=growth inhibition, read-out: GI50 SK-BR-3
Procedure, shortened: as §1

[11] = test system: IGROV; assay: SRB colorimetric cell growth inhibition assay, IGROV; settings: for GI50: GI=growth inhibition, read-out: GI50 IGROV
Procedure, shortened: as §1

[12] = test system: IGROV-ET; assay: SRB colorimetric cell growth inhibition assay, IGROV-ET (ET-743 resistant); settings: for GI50: GI=growth inhibition, read-out: GI50 IGROV-ET
Procedure, shortened: as §1

[13] = test system: LNCaP; assay: SRB colorimetric cell growth inhibition assay, LNCaP; settings: for GI50: GI=growth inhibition, read-out: GI50 LN-caP
Procedure, shortened: as §1

[14] = test system: HT-29; assay: SRB colorimetric cell growth inhibition assay, HT-29; settings: for GI50: GI=growth inhibition, read-out: GI50 HT-29; for CC50: cell killing (cytotoxic effect); for IC (TGI): total growth inhibition (cytostatic effect), read-out: TGI HT-29
Procedure, shortened: as §1

[15] = Homo sapiens, SK-MEL-28, MEL-28

COc1cc2c(cc1O)CCn1c-2c(Br)c2c3cc(OC)c(O)cc3oc(=O)c21 [Compound 188]
GI50 ([1]; Homo sapiens, A549, A-549): 10.8 µM | CC50 ([1]; Homo sapiens, A549, A-549, read-out: LC50 A-549): 21.8 µM | IC (TGI) ([1]; Homo sapiens, A549, A-549): 21.8 µM | GI50 ([2]; HELA-APL, GI=growth inhibition): 0.984 µM | CC50 ([2]; HELA-APL, read-out: LC50 HELA-APL): 15.8 µM | IC (TGI) ([2]; HELA-APL, total growth inhibition (cytostatic effect)): 31.6 µM | GI50 ([3]; Homo sapiens, K562, K-562): 0.908 µM | CC50 ([3]; Homo sapiens, K562, K-562, read-out: LC50 K-562): 21.8 µM | IC (TGI) ([3]; Homo sapiens, K562, K-562): 4.02 µM | GI50 [4, 15]: 1.14 µM | CC50 ([4]; Homo sapiens, SK-MEL-28, MEL-28, cell killing (cytotoxic effect), read-out: LC50 MEL-28): 21.8 µM | IC (TGI) [4, 15]: 21.8 µM | GI50 ([5]; Homo sapiens, LoVo): 4.5 µM | CC50 ([5]; Homo sapiens, LoVo, read-out: LC50 LOVO): 21.8 µM | IC (TGI) ([5]; Homo sapiens, LoVo): 21.8 µM | GI50 ([6]; Homo sapiens, DU-145, DU-145): 3.19 µM | CC50 ([6]; Homo sapiens, DU-145, DU-145, cell killing (cytotoxic effect), read-out: LC50 DU-145): 21.8 µM | IC (TGI) ([6]; Homo sapiens, DU-145, DU-145, total growth inhibition (cytostatic effect), read-out: TGI DU-145): 21.8 µM | GI50 ([7]; Homo sapiens, LOVO-DOX): 1.3 µM | CC50 ([7]; Homo sapiens, LOVO-DOX, read-out: LC50 LOVO-DOX): 21.8 µM | IC (TGI) ([7]; Homo sapiens, LOVO-DOX): 21.8 µM | GI50 ([8]; Homo sapiens, PANC-1, PANC-1): 5.56 µM | CC50 ([8]; Homo sapiens, PANC-1, PANC-1, read-out: LC50 PANC-1): 21.8 µM | IC (TGI) ([8]; Homo sapiens, PANC-1, PANC-1): 21.8 µM | GI50 [9]: 1.05 µM | CC50 ([9]; read-out: LC50 HELA): 21.8 µM | IC (TGI) ([9]; total growth inhibition (cytostatic effect)): 3.69 µM | GI50 ([10]; Homo sapiens, SK-BR-3, SK-BR-3): 3.6 µM | CC50 ([10]; Homo sapiens, SK-BR-3, SK-BR-3, cell killing (cytotoxic effect), read-out: LC50 SK-BR-3): 21.8 µM | IC (TGI) ([10]; Homo sapiens, SK-BR-3, SK-BR-3, total growth inhibition (cytostatic effect), read-out: TGI SK-BR-3): 11.5 µM | GI50 ([11]; Homo sapiens, IGROV): 5.37 µM | CC50 ([11]; Homo sapiens, IGROV, cell killing (cytotoxic effect), read-out: LC50 IGROV): 21.8 µM | IC (TGI) ([11]; Homo sapiens, IGROV, total growth inhibition (cytostatic effect), read-out: TGI IGROV): 20.2 µM | GI50 ([12]; Homo sapiens, IGROV-ET): 2.51 µM | CC50 ([12]; Homo sapiens, IGROV-ET, cell killing (cytotoxic effect), read-out: LC50 IGROV-ET): 21.8 µM | IC (TGI) ([12]; Homo sapiens, IGROV-ET, total growth inhibition (cytostatic effect), read-out: TGI IGROV-ET): 13.4 µM | GI50 ([13]; Homo sapiens, LNCaP, LN-caP): 3.3 µM | CC50 ([13]; Homo sapiens, LNCaP, LN-caP, cell killing (cytotoxic effect), read-out: LC50 LN-caP): 21.8 µM | IC (TGI) ([13]; Homo sapiens, LNCaP, LN-caP, total growth inhibition (cytostatic effect), read-out: TGI LN-caP): 21.8 µM | GI50 ([14]; Homo sapiens, HT-29, HT-29): 21.8 µM | CC50 ([14]; Homo sapiens, HT-29, HT-29, read-out: LC50 HT-29): 21.8 µM | IC (TGI) ([14]; Homo sapiens, HT-29, HT-29): 21.8 µM

COc1cc(-c2c3c4cc(OC)c(OC(=O)[C@@H](N)C(C)C)cc4oc(=O)c3n3ccc4c(OC(=O)[C@@H](N)C(C)C)c(OC)c(OC)cc4c23)ccc1OC(=O)[C@@H](N)C(C)C [Compound 190]
GI50 ([1]; A-549): 0.167 µM | IC (TGI) ([1]; Homo sapiens, A549, A-549): 1.66 µM | CC50 ([1]; Homo sapiens, A549, read-out: LC50 A-549, A-549): 10.7 µM | GI50 [2]: 0.0899 µM | CC50 ([2]; read-out: LC50 HELA-APL, HELA-APL): 5.2 µM | IC (TGI) [2]: 1.72 µM | IC (TGI) ([3]; Homo sapiens, K562, K-562): 7.12 µM | CC50 ([3]; Homo sapiens, K562, read-out: LC50 K-562, K-562): 10.7 µM | GI50 ([3]; K-562): 0.0718 µM | IC (TGI) [4, 15]: 10.7 µM | GI50 ([4]; MEL-28): 9.15 µM | CC50 ([4]; human): 10.7 µM | CC50 ([5]; Homo sapiens, LoVo, read-out: LC50 LOVO, LOVO): 5.46 µM | IC (TGI) ([5]; Homo sapiens, LoVo): 1.2 µM | GI50 ([5]; LOVO): 0.285 µM | GI50 ([6]; DU-145): 0.0575 µM | TGI DU-145 ([6]; DU-145, total growth inhibition (cytostatic effect)): 2.63E−07 Molar | CC50 ([6]; human): 10.7 µM | IC (TGI) ([7]; Homo sapiens, LOVO-DOX): 1.37 µM | CC50 ([7]; Homo sapiens, read-out: LC50 LOVO-DOX, LOVO-DOX): 7.68 µM | GI50 ([7]; LOVO-DOX): 0.31 µM | IC (TGI) ([8]; Homo sapiens, PANC-1, PANC-1): 3.5 µM | CC50 ([8]; Homo sapiens, PANC-1, read-out: LC50 PANC-1, PANC-1): 10.7 µM | GI50 ([8]; PANC-1): 0.376 µM | CC50 ([9]; read-out: LC50 HELA, HELA): 3.93 µM | IC (TGI) [9]: 1.31 µM | GI50 [9]: 0.0833 µM | GI50 ([10]; SK-BR-3): 0.0922 µM | TGI SK-BR-3 ([10]; SK-BR-3, total growth inhibition (cytostatic effect)): 3.83E−07 Molar | CC50 ([10]; human): 2.63 µM | GI50 ([11]; IGROV): 0.134 µM | TGI IGROV ([11]; IGROV, total growth inhibition (cytostatic effect)): 8.95E−07 Molar | CC50 ([11]; human): 8.32 µM | GI50 ([12]; IGROV-ET): 0.102 µM | TGI IGROV-ET ([12]; IGROV-ET, total growth inhibition (cytostatic effect)): 1.20E−06 Molar | CC50 ([12]; human): 6.42 µM | GI50 ([13]; LN-caP): 0.0486 µM | TGI LN-caP ([13]; LN-caP, total growth inhibition (cytostatic effect)): 2.97E−07 Molar | CC50 ([13]; human): 1.97 µM | GI50 ([14]; HT-29): 2.99 µM | CC50 ([14]; Homo sapiens, HT-29, read-out: LC50 HT-29, HT-29): 10.7 µM | IC (TGI) ([14]; Homo sapiens, HT-29): 10.7 µM
